For 26 compounds, IC50 results are on record in US20220251116A1, “ALKYLBORONIC ACIDS AS ARGINASE INHIBITORS” (Guangdong Newopp Biopharmaceuticals Co., Ltd., priority 2019, published 2022).

Counter-ions that a name gives are not always drawn.

The test addresses T1, recombinant human arginase 1 (Homo sapiens, UniProt P05089).
T1 sequence (P05089 1-322): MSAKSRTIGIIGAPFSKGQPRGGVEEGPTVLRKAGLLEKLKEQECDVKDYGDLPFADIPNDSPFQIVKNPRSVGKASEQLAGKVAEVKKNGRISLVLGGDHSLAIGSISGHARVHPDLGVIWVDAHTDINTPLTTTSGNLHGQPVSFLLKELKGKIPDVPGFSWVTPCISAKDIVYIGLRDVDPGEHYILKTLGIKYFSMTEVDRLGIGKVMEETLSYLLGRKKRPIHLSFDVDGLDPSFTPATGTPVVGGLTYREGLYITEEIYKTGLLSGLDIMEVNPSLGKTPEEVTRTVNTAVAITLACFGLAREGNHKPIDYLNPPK
The experiment in a line: Arginase inhibitory activity test, enzymatic assay based on urea measurement (Arg 1).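 Also: enzyme incubated with L-arginine substrate and compound at 37 °C for 120 min, urea product detected colorimetrically by absorbance at 450 nm, background from wells lacking enzyme.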
Procedure: An enzymatic assay with recombinant human arginases 1 or 2 was used to measure inhibitory activity of the compounds. The assay is based on urea measurement, which is a product of L-arginine enzymatic degradation.
Briefly, arginase and the substrate solution containing L-arginine were incubated in the absence or presence of varying concentrations of compounds at 37° C. for 120 min. For the background correction, only the substrate solution was added without arginase. The urea detection reagent from QuantiChrome™ Urea assay kit (BioAssay Systems, CA) was added to develop the color product. After 60 min at room temperature, the absorbance was measured at 450 nm with CLARIOstar (BMG LABTECH). Urea was used as the standard.
What is called IC50 is the concentration that gives 50% inhibition. With `N[C@@H](CNS(=O)(=O)N1C[C@H](CCCB(O)O)[C@](N)(C(=O)O)C1)C(=O)O` (racemic) [Example 56], the IC50 was 100 to 1000 nM.
Regarding `NC1(CNS(=O)(=O)N2C[C@H](CCCB(O)O)[C@](N)(C(=O)O)C2)CC1` (racemic) [Example 19, (rac)-(trans)3-amino-1-(N-((1-aminocyclopropyl)methyl)sulfamoyl)-4-(3-boronopropyl)pyrrolidine-3-carboxylic acid, 2,2,2-trifluoroacetic acid salt (1:2)], the IC50 lay in the range of 100 to 1000 nM.
`NC1CC(NS(=O)(=O)N2C[C@H](CCCB(O)O)[C@](N)(C(=O)O)C2)C1` (mixture of isomers) [Example 24, (rac)-trans-3-amino-1-(N-((rac)trans-3-aminocyclobutyl)sulfamoyl)-4-(3-boronopropyl)pyrrolidine-3-carboxylic acid compound with 2,2,2-trifluoroacetic acid (1:2)]: the IC50 was under 100 nM.
As for `N[C@@]1(C(=O)O)CN(S(=O)(=O)NC2CNC2)C[C@@H]1CCCB(O)O` (racemic) [Example 34, (rac)-trans-3-amino-1-(N-(azetidin-3-yl)sulfamoyl)-4-(3-boronopropyl)pyrrolidine-3-carboxylic acid, 2,2,2-trifluoroacetic acid salt (1:2)], the IC50 is under 100 nM.
With `CN1CCN(S(=O)(=O)N2C[C@H](CCCB(O)O)[C@](N)(C(=O)O)C2)CC1` (racemic) [Example 44, (racemic)-trans-3-amino-4-(3-boronopropyl)-1-((4-methylpiperazin-1-yl)sulfonyl)pyrrolidine-3-carboxylic acid, 2,2,2-trifluoroacetic acid salt (1:2)], the IC50 lay in the range of 100 to 1000 nM.
Take `NCCNc1c(N2C[C@H](CCCB(O)O)[C@](N)(C(=O)O)C2)c(=O)c1=O` [Example 28, (3R,4S)-3-amino-1-(2-((2-aminoethyl)amino)-3,4-dioxocyclobut-1-en-1-yl)-4-(3-boronopropyl)pyrrolidine-3-carboxylic acid, 2,2,2-trifluoroacetic acid salt (1:2)]: the IC50 is under 100 nM.
As for `NC(=O)CNS(=O)(=O)N1C[C@H](CCCB(O)O)[C@](N)(C(=O)O)C1` (racemic) [Example 7, (rac)trans-3-amino-1-(N-(2-amino-2-oxoethyl)sulfamoyl)-4-(3-boronopropyl)pyrrolidine-3-carboxylic acid, (1:1) 2,2,2-trifluoroacetic acid salt], the figure is 1000 to 10000 nM; as for `N[C@@]1(C(=O)O)CN(S(=O)(=O)N(CC2CC2)[C@H]2CCCNC2)C[C@@H]1CCCB(O)O` [Example 72, (3R,4S)-3-amino-4-(3-boronopropyl)-1-(N-(cyclopropylmethyl)-N-((S)-piperidin-3-yl)sulfamoyl)pyrrolidine-3-carboxylic acid, 2,2,2-trifluoroacetic acid salt (1:2)], under 100 nM.
Turning to `N[C@@]1(C(=O)O)CN(S(=O)(=O)N(CC2CC2)C2CCNCC2)C[C@@H]1CCCB(O)O` [Example 74, (3R,4S)-3-amino-4-(3-boronopropyl)-1-(N-(cyclopropylmethyl)-N-(piperidin-4-yl)sulfamoyl)pyrrolidine-3-carboxylic acid, 2,2,2-trifluoroacetic acid salt (1:2)], the IC50 is under 100 nM.
For `N[C@@]1(C(=O)O)CN(S(=O)(=O)N(CC2CC2)[C@@H]2CCNC2)C[C@@H]1CCCB(O)O` [Example 70, (3R,4S)-3-amino-4-(3-boronopropyl)-1-(N-(cyclopropylmethyl)-N-((R)-pyrrolidin-3-yl)sulfamoyl)pyrrolidine-3-carboxylic acid, 2,2,2-trifluoroacetic acid salt (1:2)], the IC50 was under 100 nM.
Turning to `N[C@@]1(C(=O)O)CN(S(=O)(=O)N(CC2CC2)[C@@H]2CCCNC2)C[C@@H]1CCCB(O)O` [Example 73, (3R,4S)-3-amino-4-(3-boronopropyl)-1-(N-(cyclopropylmethyl)-N-((R)-piperidin-3-yl)sulfamoyl)pyrrolidine-3-carboxylic acid, 2,2,2-trifluoroacetic acid salt (1:2)], the IC50 was under 100 nM.
For the compound `NC1(CN(CC2CC2)S(=O)(=O)N2C[C@H](CCCB(O)O)[C@](N)(C(=O)O)C2)CC1` [Example 68, (3R,4S)-3-amino-1-(N-((1-aminocyclopropyl)methyl)-N-(cyclopropylmethyl)sulfamoyl)-4-(3-boronopropyl)pyrrolidine-3-carboxylic acid, 2,2,2-trifluoroacetic acid salt (1:2)], the IC50 was under 100 nM.
For the compound `CCN(C1CNC1)S(=O)(=O)N1C[C@H](CCCB2O[C@H]3C[C@H]4C[C@H](C4(C)C)[C@@]3(C)O2)[C@](N)(C(=O)O)C1` [Example 75, (3R,4S)-3-amino-1-(N-(azetidin-3-yl)-N-ethylsulfamoyl)-4-(3-((3aR,4R,6R,7aS)-3a,5,5-trimethylhexahydro-4,6-methanobenzo[d][1,3,2]dioxaborol-2-yl)propyl)pyrrolidine-3-carboxylic acid], the IC50 is under 100 nM.
Turning to `NC(=O)NS(=O)(=O)N1C[C@H](CCCB(O)O)[C@](N)(C(=O)O)C1` (racemic) [Example 53, (racemic)-trans-3-amino-4-(3-boronopropyl)-1-(N-carbamoylsulfamoyl)pyrrolidine-3-carboxylic acid 2,2,2-trifluoroacetic acid salt (1:2)], the IC50 was 1000 to 10000 nM.
On to `CCCN(C1CNC1)S(=O)(=O)N1C[C@H](CCCB(O)O)[C@](N)(C(=O)O)C1` [Example 59, (3R,4S)-3-amino-1-(N-(azetidin-3-yl)-N-propylsulfamoyl)-4-(3-boronopropyl)pyrrolidine-3-carboxylic acid, 2,2,2-trifluoroacetic acid salt (1:2)], for which the IC50 is under 100 nM.
Consider `CC1(C)[C@H]2C[C@@H]3OB(CCC[C@H]4CN(S(=O)(=O)NCCN)C[C@@]4(N)C(=O)O)O[C@]3(C)[C@@H]1C2` (racemic) [Example 36], for which the IC50 was under 100 nM.
The figure for `N[C@@]1(C(=O)O)CN(S(=O)(=O)N(CC2CC2)C2CNC2)C[C@@H]1CCCB(O)O` [Example 63, (3R,4S)-3-amino-1-(N-(azetidin-3-yl)-N-(cyclopropylmethyl)sulfamoyl)-4-(3-boronopropyl)pyrrolidine-3-carboxylic acid, 2,2,2-trifluoroacetic acid salt (1:2)] is under 100 nM; for `CCN(CC1(N)CC1)S(=O)(=O)N1C[C@H](CCCB(O)O)[C@](N)(C(=O)O)C1` [Example 65, (3R,4S)-3-amino-1-(N-((1-aminocyclopropyl)methyl)-N-ethylsulfamoyl)-4-(3-boronopropyl)pyrrolidine-3-carboxylic acid, 2,2,2-trifluoroacetic acid salt (1:2)] it is 1000 to 10000 nM; for `CN(C1CNC1)S(=O)(=O)N1C[C@H](CCCB(O)O)[C@](N)(C(=O)O)C1` (racemic) [Example 42, (rac)-trans-3-amino-1-(N-(azetidin-3-yl)-N-methylsulfamoyl)-4-(3-boronopropyl)pyrrolidine-3-carboxylic acid, 2,2,2-trifluoroacetic acid salt (1:2)] it is under 100 nM.
As to `C[C@H](CN)NS(=O)(=O)N1C[C@H](CCCB(O)O)[C@](N)(C(=O)O)C1` (racemic) [Example 16, (rac)trans-3-amino-1-(N-((R)-1-aminopropan-2-yl)sulfamoyl)-4-(3-boronopropyl)pyrrolidine-3-carboxylic acid (diastereomers), 2,2,2-trifluoroacetic acid salt (1:2)], the IC50 was under 100 nM.
In the case of `CC(C)C(NS(=O)(=O)N1CC(CCCB(O)O)C(N)(C(=O)O)C1)C(=O)O` (racemic) [Example 11, (rac)trans-3-amino-4-(3-boronopropyl)-1-(N-((S)-1-carboxy-2-methylpropyl)sulfamoyl)pyrrolidine-3-carboxylic acid (diastereomer), (1:1) 2,2,2-trifluoroacetic acid salt], the IC50 is 1000 to 10000 nM.
Turning to `CNS(=O)(=O)N1C[C@H](CCCB(O)O)[C@](N)(C(=O)O)C1` (racemic) [Example 2, (rac)trans-3-amino-4-(3-boronopropyl)-1-(N-methylsulfamoyl)pyrrolidine-3-carboxylic acid, (1:1) 2,2,2-trifluoroacetic acid salt], the IC50 was 1000 to 10000 nM.
Consider `CN(CCN)c1c(N2C[C@H](CCCB(O)O)[C@](N)(C(=O)O)C2)c(=O)c1=O` [Example 29, (3R,4S)-3-amino-1-(2-((2-aminoethyl)(methyl)amino)-3,4-dioxocyclobut-1-en-1-yl)-4-(3-boronopropyl)pyrrolidine-3-carboxylic acid, 2,2,2-trifluoroacetic acid salt (1:2)], for which the IC50 is under 100 nM.
As for `CC(C)(N)C(C)(C)NS(=O)(=O)N1C[C@H](CCCB(O)O)[C@](N)(C(=O)O)C1` (racemic) [Example 50, (racemic)-trans-3-amino-1-(N-(3-amino-2,3-dimethylbutan-2-yl)sulfamoyl)-4-(3-boronopropyl)pyrrolidine-3-carboxylic acid, 2,2,2-trifluoroacetic acid salt (1:2)], the IC50 is 100 to 1000 nM.
On to `CCN(C1CNC1)S(=O)(=O)N1C[C@H](CCCB(O)O)[C@](N)(C(=O)O)C1` (racemic) [Example 52, (racemic)-trans-3-amino-1-(N-(azetidin-3-yl)-N-ethylsulfamoyl)-4-(3-boronopropyl)pyrrolidine-3-carboxylic acid 2,2,2-trifluoroacetic acid salt (1:2)], for which the IC50 is under 100 nM.
In the case of `CC(C)(O)CNS(=O)(=O)N1C[C@H](CCCB(O)O)[C@](N)(C(=O)O)C1` (racemic) [Example 9, (rac)trans-3-amino-4-(3-boronopropyl)-1-(N-(2-hydroxy-2-methylpropyl)sulfamoyl)pyrrolidine-3-carboxylic acid, (1:1) 2,2,2-trifluoroacetic acid salt], the IC50 was in the range of 100 to 1000 nM.
